Measured values reported in patent US20140315809A1, “CALCIMIMETICS AND METHODS FOR THEIR USE” (KAI PHARMACEUTICALS INC., priority 2011, published 2014).

Legend:
Format in all cases: in vivo, rat
[1] = system: adenine-induced model of chronic renal failure in rats; assay: Serum phosphorus, calcium and calcium-phosphorus product in adenine-induced chronic renal failure; details: uremic rats
Procedure: (§1) The therapeutic efficacy Ac-c(C)rrarar-NH2, (SEQ ID NO:28) was assessed using an adenine-induced model of chronic renal failure in rats. The rats were obtained from Charles River Laboratories (Wilmington, Mass.). The rats were fed a low protein (2.5%), high phosphorus (0.92%) diet containing 0.75% adenine (Teklad Custom Diet). Animals were randomly assigned to receive daily subcutaneous doses of vehicle (10 mM succinic acid, 0.85% NaCl, 0.9% benzyl alcohol, pH 4.5) or Ac-c(C)rrarar-NH2 (SEQ ID NO:28) at 0.3 or 1 mg/kg (SC) for 4 weeks. A control group was fed the identical high phosphorus diet and tissues without adenine. Treatment was initiated at the start of diet. All experimental procedures with animals were performed according to IACUC guidelines. Statistical analysis was performed using one-way ANOVA with Bonferroni post test. All p-values are nominal.
Phosphorus and calcium were determined using a Cobas c-501 analyzer.

[2] = system: adenine-induced model of chronic renal failure in rats; assay: Parathyroid gland weight in adenine-induced chronic renal failure; details: 0.3 or 1 mg/kg SC daily for 4 weeks
Procedure: as §1
The effects of Ac-c(C)rrarar-NH2 (SEQ ID NO:28) treatment on parathyroid gland enlargement was also determined using the adenine-induced rat model of chronic renal failure. After treatment with Ac-c(C)rrarar-NH2 (SEQ ID NO:28) at doses of 0.3 or 1 mg/kg for 4 weeks, the uremic rats were sacrificed and the parathyroid glands were removed, trimmed and weighed.

[3] = system: adenine-induced model of chronic renal failure in rats; assay: Vascular calcification (Alizarin Red, von Kossa) in adenine-induced chronic renal failure; details: uremic rats
Procedure: as §1
The effects of Ac-c(C)rrarar-NH2 (SEQ ID NO:28) treatment of vascular calcification was also determined using adenine-induced rat model of chronic renal failure. After treatment with Ac-c(C)rrarar-NH2 (SEQ ID NO:28) at doses of 0.3 or 1 mg/kg for 4 weeks, the uremic rats were sacrificed and aortic tissue was analyzed. Aortic tissue was processed and stained by Alizarin Red and von Kossa methods to visualize vascular mineralization. Using a scoring system from 0-5, identical sections of von Kossa-stained aorta from all animals were scored in a blinded fashion.

[4] = system: adenine-induced model of chronic renal failure in rats; assay: Creatinine suppression in adenine-induced chronic renal failure; details: 4 weeks
Procedure: as §1
Serum creatinine was measured using QuantiChrom™ kit (BioAssay Systems, Hayward, Calif.). Serum creatinine levels from vehicle-treated uremic animals were approximately 8-10 fold higher compared to the control group of non-uremic animals at the end of the 4 weeks. […] Uremic animals treated with Ac-c(C)rrarar-NH2 (SEQ ID NO:28) at a dose of 1 mg/kg Ac-c(C)rrarar-NH2 (SEQ ID NO:28) had approximately 50% lower serum creatinine levels compared with vehicle-treated controls.

[5] = system: adenine-induced model of chronic renal failure in rats; assay: PTH suppression in adenine-induced chronic renal failure; details: uremic rats, 0.3 or 1 mg/kg SC daily for 2 and 4 weeks
Procedure: as §1
Plasma PTH was measured using the Immunotopics BioActive Intact ELISA (Immutopics, San Clemente, Calif.). Prior to dosing with Ac-c(C)rrarar-NH2 (SEQ ID NO:28), all treatment groups had similar plasma PTH levels. The no-adenine-control animals maintained consistent plasma PTH levels over the 4 week study.

[6] = 0.3 and 1 mg/kg SC daily for 4 weeks
[7] = 0.3 or 1 mg/kg SC daily for 4 weeks

Substance: Ac-c(C)rrarar-NH2
- reduction in serum calcium-phosphorus product ([1]; 0.3 mg/kg SC daily for 4 weeks): ~20%
- reduction in serum calcium-phosphorus product ([1]; 1 mg/kg SC daily for 4 weeks): ~40%
- serum calcium compared to vehicle-treated rats [1, 6]: significant dose-dependent reduction
- serum phosphorus levels [1, 6]: significant reduction
- parathyroid gland weight compared to non-uremic animals [2]: not significantly different in weight
- parathyroid gland weight compared to vehicle group ([2]; uremic rats): significantly reduced in weight
- animals showing aortic mineralization ([3]; 0.3 mg/kg treatment group, 4 weeks): Only one animal
- aortic mineralization, Alizarin Red and Von Kossa staining [3, 7]: little or no mineralization
- von Kossa staining of aorta [3, 7]: no appreciable von Kossa staining
- serum creatinine levels versus vehicle-treated uremic rats ([4]; 0.3 and 1 mg/kg SC daily): significantly lower
- lower serum creatinine levels compared with vehicle-treated controls ([4]; uremic rats, 1 mg/kg SC daily): approximately 50%
- plasma PTH versus vehicle-treated animals [5]: significantly lower
